How the values were obtained:
PYL2 = molecular target: T1, PYL2 (Arabidopsis thaliana, UniProt O80992); test: Protein dephosphorylation enzyme activity test, PYL2; type: biochemical, thale cress; conditions: control = 100%
T1 construct: 6xHis (N); made in house; host or cells: Escherichia coli BL21-codonplus(DE3)-RIPL (PYL); BL21(DE3)pLysS (HAB1)
T1 sequence (O80992 1-190): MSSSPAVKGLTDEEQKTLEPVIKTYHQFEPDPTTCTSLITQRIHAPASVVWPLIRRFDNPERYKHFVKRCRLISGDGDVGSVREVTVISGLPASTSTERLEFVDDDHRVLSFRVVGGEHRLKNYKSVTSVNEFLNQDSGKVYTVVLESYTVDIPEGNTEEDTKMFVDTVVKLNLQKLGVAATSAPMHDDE
Method: (§1) A plasmid (pGex-2T-GST-HAB1 or pET28-6×His-PYL) encoded with PYR/PYL/RCAR proteins (PYL, abscisic acid receptor) or protein dephosphorylation enzyme HAB1 of thale cress was transformed to Escherichia coli (HAB1:BL21(DE3)pLysS, PYL:BL21-codonplus(DE3)-RIPL). Isopropyl-β-thiogalactopyranoside was added to the culture broth, which had been subjected to pre-culture (30° C., 180 rpm, 15 hours) and main culture (30° C., 180 rpm, 4 hours), and the protein-expressed (16° C., 150 rpm, 18 hours) crude enzyme solution was purified using FPLC thereby preparing the recombined PYL (PYR1, PYL1-6, PYL8-10) and HAB1. β-Mercaptoethanol, a manganese chloride aqueous solution, HAB1, PYL, a solution of the sample in dimethylsulfoxide and ultrapure water were sequentially added to a 96-well plate, allowed to stand at 22° C. for 30 minutes. Subsequently p-nitrophenylphosphate, which is the artificial substrate of HAB1, was added thereto to start the reaction, and the plate was placed in a microplate reader (TECAN, Infinite™ N200 NanoQuant). The absorbance at 405 nm due to p-nitrophenol, which is the hydrolysate of p-nitrophenylphosphate, was measured 3 minutes later from the reaction initiation, and HAB1 activity was calculated by the following formula (2). Note that the fraction to which only dimethylsulfoxide was added was considered to be the control and the activity thereof was defined as 100%. […] HAB1 specific activity (%)=Absorbance when sample was added/Absorbance of control×100 (2)

PYL6 = molecular target: T2, PYL6 (Arabidopsis thaliana, UniProt Q8S8E3); test: Protein dephosphorylation enzyme activity test, PYL6; type: biochemical, thale cress; conditions: control = 100%
T2 construct: 6xHis (N); made in house; host or cells: Escherichia coli BL21-codonplus(DE3)-RIPL (PYL); BL21(DE3)pLysS (HAB1)
T2 sequence (Q8S8E3 1-215): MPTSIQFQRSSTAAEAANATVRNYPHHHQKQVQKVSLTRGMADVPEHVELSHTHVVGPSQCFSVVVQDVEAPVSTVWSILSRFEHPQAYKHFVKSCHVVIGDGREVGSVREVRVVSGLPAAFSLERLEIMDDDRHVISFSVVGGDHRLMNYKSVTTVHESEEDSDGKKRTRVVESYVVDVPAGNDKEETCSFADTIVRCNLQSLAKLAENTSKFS
Method: as §1

[1] = tested on: seeds of thale cress (Arabidopsis thaliana, Col-0); test: Thale cress seed germination test; type: in vivo
Method: Seeds of thale cress (Arabidopsis thaliana, Col-0) were immersed in 500 μL of an aqueous solution of 70% ethanol for 30 minutes, subsequently in 500 μL of a 100% ethanol solution for 1 minute, washed five times in 1 mL of distilled water, then immersed in distilled water and, in a dark place, vernalized at 4° C. for 3 days. A solution of the sample in methanol was put in a 1.5 mL-microtube, and methanol was removed therefrom under reduced pressure. An aqueous solution of 0.5% agar (containing ½ MS medium inorganic salts) at 70° C. was added thereto and stirred, and subsequently the obtained mixture was placed in a 96-well plate to prepare the medium containing the sample. All samples were prepared so as to have a concentration of 3 μM of the compound in Examples 1 to 9 and Comparative Example 1. Further, when ABA is applied, the ABA concentration was adjusted to 0.3 μM. 20 to 30 vernalized seeds of thale cress were planted in each well and cultured at 22° C. under continuous light to monitor the number of seeds germinated over time. The germination rate was calculated by the following formula (1). Note that those cultured in medium prepared using methanol in the same manner were used as controls. […] Germination rate (%)=Number of seeds germinated/Number of seeds planted×100 (1)
The same test was carried out as in Test Example 1 with the concentrations of the compound of Example 1 for treatment varying from 0.3 μM to 30 μM.
Similarly, the same test was carried out with the concentrations of the compound of Example 2 for treatment varying from 0.3 μM to 30 μM.
The same test was carried out as in Test Example 2 with the concentrations of the compounds for treatment varying from 0.3 μM to 3 μM to compare the recovery effects on seed germination rate of the compound of Example 1 and the compound of Comparative Example 1.

PYL5 = molecular target: T3, PYL5 (Arabidopsis thaliana, UniProt Q9FLB1); test: Protein dephosphorylation enzyme activity test, PYL5; type: biochemical, thale cress; conditions: control = 100%
T3 construct: 6xHis (N); made in house; host or cells: Escherichia coli BL21-codonplus(DE3)-RIPL (PYL); BL21(DE3)pLysS (HAB1)
T3 sequence (Q9FLB1 1-203): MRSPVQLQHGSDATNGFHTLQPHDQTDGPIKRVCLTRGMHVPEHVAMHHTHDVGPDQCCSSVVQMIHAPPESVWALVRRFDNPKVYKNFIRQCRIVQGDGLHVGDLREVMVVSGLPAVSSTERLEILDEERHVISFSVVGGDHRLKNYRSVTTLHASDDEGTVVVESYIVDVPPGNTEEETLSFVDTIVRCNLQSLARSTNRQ
Method: as §1

PYL1 = molecular target: T4, PYL1 (Arabidopsis thaliana, UniProt Q8VZS8); test: Protein dephosphorylation enzyme activity test, PYL1; type: biochemical, thale cress; conditions: control = 100%
T4 construct: 6xHis (N); made in house; host or cells: Escherichia coli BL21-codonplus(DE3)-RIPL (PYL); BL21(DE3)pLysS (HAB1)
T4 sequence (Q8VZS8 1-221): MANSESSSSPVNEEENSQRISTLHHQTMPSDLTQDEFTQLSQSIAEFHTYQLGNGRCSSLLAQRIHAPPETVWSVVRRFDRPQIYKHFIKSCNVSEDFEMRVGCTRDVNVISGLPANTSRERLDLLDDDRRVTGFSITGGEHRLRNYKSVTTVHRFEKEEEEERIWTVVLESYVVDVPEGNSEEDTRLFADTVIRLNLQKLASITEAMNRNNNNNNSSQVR
Method: as §1

PYR1 = molecular target: T5, PYR1 (Arabidopsis thaliana, UniProt O49686); test: Protein dephosphorylation enzyme activity test, PYR1; type: biochemical, thale cress; conditions: control = 100%
T5 construct: 6xHis (N); made in house; host or cells: Escherichia coli BL21-codonplus(DE3)-RIPL (PYL); BL21(DE3)pLysS (HAB1)
T5 sequence (O49686 1-191): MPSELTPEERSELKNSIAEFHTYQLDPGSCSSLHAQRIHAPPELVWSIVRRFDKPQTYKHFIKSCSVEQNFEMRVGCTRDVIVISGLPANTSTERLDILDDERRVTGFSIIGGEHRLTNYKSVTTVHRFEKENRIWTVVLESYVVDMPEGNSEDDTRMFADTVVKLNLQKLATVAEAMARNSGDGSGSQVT
Method: as §1

[2] = 3 μM compound co-applied with 0.3 μM ABA

| HAB1 Specific activity (%) PYL2 (PYL2; sample alone) | HAB1 Specific activity (%) PYL6 (PYL6; sample alone) | HAB1 Specific activity (%) PYL5 (PYL5; sample alone) | HAB1 Specific activity (%) PYL1 (PYL1; sample alone) | HAB1 Specific activity (%) PYR1 (PYR1; sample alone) | HAB1 Specific activity (%) PYL2 (PYL2; ABA + compound) | HAB1 Specific activity (%) PYL6 (PYL6; ABA + compound) | HAB1 Specific activity (%) PYL5 (PYL5; ABA + compound) | HAB1 Specific activity (%) PYL1 (PYL1; ABA + compound) | HAB1 Specific activity (%) PYR1 (PYR1; ABA + compound) | SMILES | Germination rate (%) 24 Hours later [1, 2] | Germination rate (%) 36 Hours later [1, 2] | Germination rate (%) 48 Hours later [1, 2] | Germination rate (%) 60 Hours later [1, 2] | Germination rate (%) 24 Hours later ([1]; compound alone, 3 μM) | Germination rate (%) 36 Hours later ([1]; compound alone, 3 μM) | Germination rate (%) 48 Hours later ([1]; compound alone, 3 μM) | Germination rate (%) 60 Hours later ([1]; compound alone, 3 μM) | also measured |
| --- | --- | --- | --- | --- | --- | --- | --- | --- | --- | --- | --- | --- | --- | --- | --- | --- | --- | --- | --- |
| 133% | 93.5% | 85.5% | 136% | 95.7% | 113% | 61.0% | 74.6% | 87.7% | 62.6% | CC1=C[C@@H](OCC#Cc2ccc(C)cc2)CC(C)(C)[C@@]1(O)/C=C/C(C)=C\C(=O)O [Example 7] | 0% | 76% | 100% | 100% | 0% | 86% | 100% | 100% | – |
| 96.6% | 122% | 85.8% | 98.1% | 99.6% | 84.8% | 87.6% | 87% | 55.6% | 49% | CC1=C[C@@H](OCC#Cc2ccccc2)CC(C)(C)[C@@]1(O)/C=C/C(C)=C\C(=O)O [Example 1, (2Z,4E)-5-((1S,4S)-1-hydroxy-2,6,6-trimethyl-4-((3-phenylprop-2-yn-1-yl)oxy)cyclohex-2-en-1-yl)-3-methylpenta-2,4-dienoic acid] | 0% | 79% | 100% | 100% | 0% | 86% | 100% | 100% | Recovery of seed germination rate decreased by ABA ([1]; compound 0.3 μM to 30 μM co-applied with ABA): seed germination rates decreased by ABA are recovered; Recovery effect on seed germination rate, comparison ([1]; compounds 0.3 μM to 3 μM, co-applied with ABA): excels in the recovery effect on seed germination rate more than the compound of Comparative Example 1 |

| SMILES | HAB1 Specific activity (%) PYL2 (PYL2; sample alone) | HAB1 Specific activity (%) PYL6 (PYL6; sample alone) | HAB1 Specific activity (%) PYL5 (PYL5; sample alone) | HAB1 Specific activity (%) PYL1 (PYL1; sample alone) | HAB1 Specific activity (%) PYR1 (PYR1; sample alone) | HAB1 Specific activity (%) PYL2 (PYL2; ABA + compound) | HAB1 Specific activity (%) PYL6 (PYL6; ABA + compound) | HAB1 Specific activity (%) PYL5 (PYL5; ABA + compound) | HAB1 Specific activity (%) PYL1 (PYL1; ABA + compound) | HAB1 Specific activity (%) PYR1 (PYR1; ABA + compound) | Germination rate (%) 24 Hours later [1, 2] | Germination rate (%) 36 Hours later [1, 2] | Germination rate (%) 48 Hours later [1, 2] | Germination rate (%) 60 Hours later [1, 2] | Germination rate (%) 24 Hours later ([1]; compound alone, 3 μM) | Germination rate (%) 36 Hours later ([1]; compound alone, 3 μM) | Germination rate (%) 48 Hours later ([1]; compound alone, 3 μM) | Germination rate (%) 60 Hours later ([1]; compound alone, 3 μM) | also measured |
| --- | --- | --- | --- | --- | --- | --- | --- | --- | --- | --- | --- | --- | --- | --- | --- | --- | --- | --- | --- |
| CC1=CC(=O)CC(C)(C)[C@@]1(O)/C=C/C(C)=C\C(=O)O [ABA, abscisic acid] | 13.1% | 19.5% | 15.5% | 18.6% | 18.6% | – | – | – | – | – | – | – | – | – | – | – | – | – | Germination rate (%) 24 Hours later ([1]; ABA alone, 0.3 μM): 0%; Germination rate (%) 36 Hours later ([1]; ABA alone, 0.3 μM): 0%; Germination rate (%) 48 Hours later ([1]; ABA alone, 0.3 μM): 16.2%; Germination rate (%) 60 Hours later ([1]; ABA alone, 0.3 μM): 32.6% |
